From patent US4211551A, “Herbicide” (Siegfried AG, priority 1976, dated 1980)

Assays:
[1] = test system: Rough Henbit (Lamium purpureum); test: Field test, herbicidal % effect on weeds (logarithmic sprayer); type: in vivo; conditions: four weeks
Excerpt: (§1) The composition prepared according to example 6 was used in field tests and compared with a composition of the type set forth in example 6 with the modification that the CBPA was replaced by the same amount of a conventional herbicide, i.e. Methabenzthiazuron (BSI approved common name). A "logarithmic" spraying apparatus of the type known in herbicide evaluation was used for these tests. This apparatus comprises an elongated spraying device connected with a reservoir for the composition to be tested, and a water reservoir. Separate test areas were sprayed with this apparatus and each composition was applied as an aqueous suspension. […] The apparatus was operated such that the initial concentration of the active ingredient was equivalent to 10 kg/ha and decreased as follows:
(§2) The amount of water applied by the apparatus remained constant and was equivalent to 666 liters per hectare. The tests were made in early August of 1976. The test areas were seeded with crop plant on a substantially weed-free soil, a middle-heavy sandy clay. One test area (zero-control) was seeded but not sprayed. Four weeks thereafter, the treated areas were inspected to determine the number of individual weed plants per square meter for five significant types of weeds and to calculate the percent effect according to the formula
(§3) wherein AK is the number of the individual plants of the specific weed in the untreated zero-control area and AB is the corresponding number of weed plants in the treated area. The results of these tests for three different dosage amounts with the inventive CBPA (column A) and the prior art Methabenzthiazuron are summarized in Table I below. This table further includes compatibility data of three types of crop plants for the tested composition. Crop compatibility was rated according to the evaluation scale of the "European Weed Research Council (EWRC)." In this scale, numeral 1 indicates complete absence of plant damage symptoms while numeral 9 indicates complete damage. For practical purposes, the crop tolerance limit is assumed to be between numerals 4 and 5.

[2] = test system: Lambs Quarters (Chenopodium album); test: as above; type: in vivo; conditions: four weeks
Excerpt: as §1, §2, §3

[3] = test system: Camomile (Matricaria chamomilla); test: as above; type: in vivo; conditions: four weeks
Excerpt: as §1, §2, §3

[4] = test system: Chickweed (Stellaria media); test: as above; type: in vivo; conditions: four weeks
Excerpt: as §1, §2, §3

[5] = test system: Shepherds Purse (Capsella bursa-pastoris); test: as above; type: in vivo; conditions: four weeks
Excerpt: as §1, §2, §3

Wild oat (Avena fatua) = test: Green-house test, control of Wild oat (EWRC-scale); type: in vivo; conditions: scale 1 = complete absence of plant damage, 9 = complete damage
Excerpt: as §3
Green-house tests were made to determine the activity of CBPA in the control of Wild oat (Avena fatua), a very noxious weed in many crop cultures. The test plants were seeded and cultured in pots at temperatures of 20° to 21° C. Effectivity tests were made when the plants had reached the two-leave to four-leave state, i.e. when the total plant height was about 10 to 12 cm. The amount of water applied in addition to the composition was equivalent to 1000 liters per hectare in each case. As a comparative substance (formulated in the same manner as the inventive CBPA or its salts) a recently developed standard herbicide, Diclofop-methyl, (BSI-approved common name) was used.
The effects were rated again by the EWRC-scale mentioned above and the results are given in Table II below indicating the results at varying amounts of the applied substance (in kilograms of active substance per hectare) after 7, 14 and 21 days subsequent to the treatment.

weed infested crop area = test: Treatment of weed infested crop area in the two to four leave state; type: in vivo
[6] = test system: five significant types of weeds; test: Field test, average weed effect over five weeds; type: in vivo; conditions: four weeks
Excerpt: as §1, §2, §3

[7] = test system: Barnyard Grass (Echinochloa crus-galli); test: Further field tests, control of Graminae weeds; type: in vivo
Excerpt: as §1, §2

[8] = test system: Common wild oat (Avena fatua); test: Further field tests, control of Graminae weeds; type: in vivo
Excerpt: as §1, §2

[9] = test system: Annual meadow grass (Poa annua); test: Further field tests, control of Graminae weeds; type: in vivo
Excerpt: as §1, §2

Corn (Zea mais) = test: Field test, crop compatibility (EWRC-evaluation); type: in vivo
Excerpt: as §1, §2, §3

Green beans = test: Field test, crop compatibility (EWRC-evaluation); type: in vivo
Excerpt: as §1, §2, §3

[10] = test system: monocotyledonous and dicotyledonous weeds; test: Herbicidal effectiveness against monocotyledonous and dicotyledonous weeds; type: in vivo; conditions: pre-emergence and post-emergence treatment
mice = conditions: cited from earlier work
[11] = test system: weeds of the Graminae family; test: Herbicidal effectiveness against Graminae weeds; type: in vivo; conditions: such as Barnyard grass, Annual meadow-grass, Wild Oat
Barley = test: Field test, crop compatibility (EWRC-evaluation); type: in vivo; conditions: scale 1 = complete absence of plant damage symptoms, 9 = complete damage
Excerpt: as §1, §2, §3

O=C(O)COc1ccc(Cc2ccc(Cl)cc2)cc1 [CBPA, 4-(4'-chlorobenzyl)-phenoxy acetic acid]
Herbicidal % effect on specific weeds ([1]; 2.65 kg/ha a.i.): 89%
Herbicidal % effect on specific weeds ([1]; 4.3 kg/ha a.i.): 91%
Herbicidal % effect on specific weeds ([1]; 6.7 kg/ha a.i.): 97%
Herbicidal % effect on specific weeds ([2]; 2.65 kg/ha a.i.): 83%
Herbicidal % effect on specific weeds ([2]; 4.3 kg/ha a.i.): 100%
Herbicidal % effect on specific weeds ([2]; 6.7 kg/ha a.i.): 100%
Herbicidal % effect on specific weeds ([3]; 2.65 kg/ha a.i.): 70%
Herbicidal % effect on specific weeds ([3]; 4.3 kg/ha a.i.): 90%
Herbicidal % effect on specific weeds ([3]; 6.7 kg/ha a.i.): 100%
Herbicidal % effect on specific weeds ([4]; 2.65 kg/ha a.i.): 83%
Herbicidal % effect on specific weeds ([4]; 4.3 kg/ha a.i.): 100%
Herbicidal % effect on specific weeds ([4]; 6.7 kg/ha a.i.): 100%
Herbicidal % effect on specific weeds ([5]; 2.65 kg/ha a.i.): 84%
Herbicidal % effect on specific weeds ([5]; 4.3 kg/ha a.i.): 96%
Herbicidal % effect on specific weeds ([5]; 6.7 kg/ha a.i.): 100%
Effect on Wild oat rated by EWRC-scale (Wild oat (Avena fatua); 1 kg/ha, 7 days): 3
Effect on Wild oat rated by EWRC-scale (Wild oat (Avena fatua); 1 kg/ha, 14 days): 4
Effect on Wild oat rated by EWRC-scale (Wild oat (Avena fatua); 1 kg/ha, 21 days): 4
Effect on Wild oat rated by EWRC-scale (Wild oat (Avena fatua); 2 kg/ha, 7 days): 4
Effect on Wild oat rated by EWRC-scale (Wild oat (Avena fatua); 2 kg/ha, 14 days): 6
Effect on Wild oat rated by EWRC-scale (Wild oat (Avena fatua); 2 kg/ha, 21 days): 8
Effect on Wild oat rated by EWRC-scale (Wild oat (Avena fatua); 4 kg/ha, 7 days): 5
Effect on Wild oat rated by EWRC-scale (Wild oat (Avena fatua); 4 kg/ha, 14 days): 9
Effect on Wild oat rated by EWRC-scale (Wild oat (Avena fatua); 4 kg/ha, 21 days): 9
Effect on Wild oat rated by EWRC-scale (Wild oat (Avena fatua); 8 kg/ha, 7 days): 5
Effect on Wild oat rated by EWRC-scale (Wild oat (Avena fatua); 8 kg/ha, 14 days): 9
Effect on Wild oat rated by EWRC-scale (Wild oat (Avena fatua); 8 kg/ha, 21 days): 9
Contact effect (weed infested crop area; two to four leave state, in addition to residual effectiveness): remarkable contact effect
Result of treatment in two to four leave state (weed infested crop area; weeds and crops in two to four leave state): positive results
Average weed effect (%) ([6]; 2.65 kg/ha a.i.): 81.8%
Average weed effect (%) ([6]; 4.3 kg/ha a.i.): 95.4%
Average weed effect (%) ([6]; 6.7 kg/ha a.i.): 99.4%
Effectiveness for control of Graminae weeds [7]: remarkable effectiveness
Effectiveness for control of Graminae weeds [8]: remarkable effectiveness
Effectiveness for control of Graminae weeds [9]: remarkable effectiveness
Crop compatibility (EWRC-evaluation) (Corn (Zea mais); in vivo): 1
Crop compatibility (EWRC-evaluation) (Green beans; in vivo): 1
Herbicidal effectiveness against monocotyledonous and dicotyledonous weeds [10]: remarkable degree of effectiveness
Herbicidal effectiveness against monocotyledonous and dicotyledonous weeds ([10]; listed as 4-(4'-chlorobenzyl)-phenoxy acetic acid): surprisingly high degree of herbicidal effectiveness
LD50 (acute oral toxicity) (mice): 2700 mg per kilogram of body weight
Effectiveness when controlling weeds of the Graminae family [11]: particularly beneficial and high degree of effectiveness

COC(=O)C(C)Oc1ccc(Oc2ccc(Cl)cc2Cl)cc1 (centres unmarked) [Diclofop-methyl, reference compound]
Effect on Wild oat rated by EWRC-scale (Wild oat (Avena fatua); 1 kg/ha, 7 days): 2
Effect on Wild oat rated by EWRC-scale (Wild oat (Avena fatua); 1 kg/ha, 14 days): 4
Effect on Wild oat rated by EWRC-scale (Wild oat (Avena fatua); 1 kg/ha, 21 days): 4
Effect on Wild oat rated by EWRC-scale (Wild oat (Avena fatua); 2 kg/ha, 7 days): 3
Effect on Wild oat rated by EWRC-scale (Wild oat (Avena fatua); 2 kg/ha, 14 days): 5
Effect on Wild oat rated by EWRC-scale (Wild oat (Avena fatua); 2 kg/ha, 21 days): 5
Effect on Wild oat rated by EWRC-scale (Wild oat (Avena fatua); 4 kg/ha, 7 days): 5
Effect on Wild oat rated by EWRC-scale (Wild oat (Avena fatua); 4 kg/ha, 14 days): 7
Effect on Wild oat rated by EWRC-scale (Wild oat (Avena fatua); 4 kg/ha, 21 days): 8
Effect on Wild oat rated by EWRC-scale (Wild oat (Avena fatua); 8 kg/ha, 7 days): 5
Effect on Wild oat rated by EWRC-scale (Wild oat (Avena fatua); 8 kg/ha, 14 days): 6
Effect on Wild oat rated by EWRC-scale (Wild oat (Avena fatua); 8 kg/ha, 21 days): 8

CNC(=O)N(C)c1nc2ccccc2s1 [Methabenzthiazuron, reference compound]
Herbicidal % effect on specific weeds ([1]; 2.65 kg/ha a.i.): 0%
Herbicidal % effect on specific weeds ([1]; 4.3 kg/ha a.i.): 73%
Herbicidal % effect on specific weeds ([1]; 6.7 kg/ha a.i.): 80%
Herbicidal % effect on specific weeds ([2]; 2.65 kg/ha a.i.): 87%
Herbicidal % effect on specific weeds ([2]; 4.3 kg/ha a.i.): 94%
Herbicidal % effect on specific weeds ([2]; 6.7 kg/ha a.i.): 98%
Herbicidal % effect on specific weeds ([3]; 2.65 kg/ha a.i.): 88%
Herbicidal % effect on specific weeds ([3]; 4.3 kg/ha a.i.): 100%
Herbicidal % effect on specific weeds ([3]; 6.7 kg/ha a.i.): 100%
Herbicidal % effect on specific weeds ([4]; 2.65 kg/ha a.i.): 100%
Herbicidal % effect on specific weeds ([4]; 4.3 kg/ha a.i.): 100%
Herbicidal % effect on specific weeds ([4]; 6.7 kg/ha a.i.): 100%
Herbicidal % effect on specific weeds ([5]; 2.65 kg/ha a.i.): 95%
Herbicidal % effect on specific weeds ([5]; 4.3 kg/ha a.i.): 99%
Herbicidal % effect on specific weeds ([5]; 6.7 kg/ha a.i.): 100%
Average weed effect (%) ([6]; 2.65 kg/ha a.i.): 74%
Average weed effect (%) ([6]; 4.3 kg/ha a.i.): 91.5%
Average weed effect (%) ([6]; 6.7 kg/ha a.i.): 95.6%
Crop compatibility (EWRC-evaluation) (Corn (Zea mais); Corn, 2.65 kg/ha a.i., scale 1 = complete absence of plant damage symptoms, 9 = complete damage, tolerance limit between 4 and 5): 1
Crop compatibility (EWRC-evaluation) (Corn (Zea mais); Corn, 4.3 kg/ha a.i., scale 1 = complete absence of plant damage symptoms, 9 = complete damage): 1
Crop compatibility (EWRC-evaluation) (Corn (Zea mais); Corn, 6.7 kg/ha a.i., scale 1 = complete absence of plant damage symptoms, 9 = complete damage): 1
Crop compatibility (EWRC-evaluation) (Green beans; Green beans, 2.65 kg/ha a.i., scale 1 = complete absence of plant damage symptoms, 9 = complete damage, tolerance limit between 4 and 5): 1
Crop compatibility (EWRC-evaluation) (Green beans; Green beans, 4.3 kg/ha a.i., scale 1 = complete absence of plant damage symptoms, 9 = complete damage): 1
Crop compatibility (EWRC-evaluation) (Green beans; Green beans, 6.7 kg/ha a.i., scale 1 = complete absence of plant damage symptoms, 9 = complete damage): 1
Crop compatibility (EWRC-evaluation) (Barley; 2.65 kg/ha a.i., tolerance limit between 4 and 5): 1
Crop compatibility (EWRC-evaluation) (Barley; 4.3 kg/ha a.i.): 1
Crop compatibility (EWRC-evaluation) (Barley; 6.7 kg/ha a.i., tolerance limit between 4 and 5): 5
